Data: patent US9695155B2, “Herbicidal substituted pyrimidinyloxy benzene compounds” (E. I. DU PONT DE NEMOURS AND COMPANY, priority 2013, dated 2017)

Assays:
[1] = tested on: chickweed; assay: Test D preemergence; format: in vivo, Stellaria media; details: Stellaria media, pre-emergence
Text: (§1) Seeds of plant species selected from bluegrass (annual bluegrass, Poa annua), blackgrass (Alopecurus myosuroides), canarygrass (littleseed canarygrass, Phalaris minor), chickweed (common chickweed, Stellaria media), galium (catchweed bedstraw, Galium aparine), bromegrass, downy (downy bromegrass, Bromus tectorum), field poppy (Papaver rhoeas), field violet (Viola arvensis), green foxtail (Setaria viridis), deadnettle (henbit deadnettle, Lamium amplexicaule), Italian ryegrass (Lolium multiflorum), kochia (Kochia scoparia), lambsquarters (Chenopodium album), oilseed rape (Brassica napus), pigweed (Amaranthus retroflexus), chamomile (scentless chamomile, Matricaria inodora), Russian thistle (Salsola kali), speedwell (bird's-eye speedwell, Veronica persica), spring barley (Hordeum vulgare), spring wheat (Triticum aestivum), wild buckwheat (Polygonum convolvulus), wild mustard (Sinapis arvensis), wild oat (Avena fatua), wild radish (Raphanus raphanistrum), windgrass (Apera spica-venti), winter barley (Hordeum vulgare), and winter wheat (Triticum aestivum) were planted into a silt loam soil and treated preemergence with test chemicals formulated in a non-phytotoxic solvent mixture which included a surfactant.
(§2) At the same time, these species were planted in pots containing Redi-Earth® planting medium (Scotts Company, 14111 Scottslawn Road, Marysville, Ohio 43041) comprising spaghnum peat moss, vermiculite, wetting agent and starter nutrients and treated with postemergence applications of the test chemicals formulated in the same manner. Plants ranged in height from 2 to 18 cm (1- to 4-leaf stage). Treated plants and controls were maintained in a controlled growth environment for 7 to 21 days after which time all species were compared to controls and visually evaluated. Plant response ratings, summarized in Table D, are based on a scale of 0 to 100 where 0 is no effect and 100 is complete control. A dash (-) response means no test result.

[2] = tested on: field poppy; assay: Test D preemergence; format: in vivo, Papaver rhoeas; details: Papaver rhoeas, pre-emergence
Summary of the method: (§3)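 Visual ratings from 0 (no effect) to 100 (complete control) relative to untreated plants were taken 7–21 days after treatment. Chemicals in a surfactant-containing solvent mixture were applied preemergence to seeds in silt loam, or postemergence to plants 2–18 cm tall (1–4 leaves) grown in a peat-based potting medium.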

[3] = tested on: Italian ryegrass; assay: Test D preemergence; format: in vivo, Lolium multiflorum; details: Lolium multiflorum, pre-emergence
Text: as §1, §2

[4] = tested on: wild oat; assay: Test D preemergence; format: in vivo, Avena fatua; details: Avena fatua, pre-emergence
Summary of the method: as §3

[5] = tested on: windgrass; assay: Test D preemergence; format: in vivo, Apera spica-venti; details: Apera spica-venti, pre-emergence
Text: as §1, §2

[6] = tested on: bluegrass; assay: Test D postemergence; format: in vivo, Poa annua; details: Poa annua, post-emergence, Postemergence, scale 0 to 100 (0 no effect, 100 complete control), read-out: Plant response rating, Bluegrass
Summary of the method: as §3

[7] = tested on: blackgrass; assay: Test D postemergence; format: in vivo, Alopecurus myosuroides; details: Alopecurus myosuroides, post-emergence, Postemergence, scale 0 to 100 (0 no effect, 100 complete control), read-out: Plant response rating, Blackgrass
Summary of the method: as §3

[8] = tested on: Italian ryegrass; assay: Test D postemergence; format: in vivo, Lolium multiflorum; details: Lolium multiflorum, post-emergence
Text: as §1, §2

[9] = tested on: spring wheat; assay: Test D postemergence; format: in vivo, Triticum aestivum; details: Triticum aestivum, post-emergence
Summary of the method: as §3

[10] = tested on: winter wheat; assay: Test D postemergence; format: in vivo, Triticum aestivum; details: Triticum aestivum, post-emergence
Summary of the method: as §3

[11] = tested on: wild buckwheat; assay: Test D postemergence; format: in vivo, Polygonum convolvulus; details: Fallopia convolvulus, post-emergence, Postemergence, scale 0 to 100 (0 no effect, 100 complete control), read-out: Plant response rating, Buckwheat, Wild
Text: as §1, §2

[12] = tested on: windgrass; assay: Test D postemergence; format: in vivo, Apera spica-venti; details: Apera spica-venti, post-emergence
Summary of the method: as §3

**Q.** Which results are given for FC(F)(F)c1cn(-c2ccccc2Oc2ncc(Cl)cn2)nn1 [Compound 166, 5-chloro-2-[2-[4-(trifluoromethyl)-1H-1,2,3-triazol-1-yl]phenoxy]pyrimidine]?
**A.** pest or weed control at 16 g/ha ([1]; 16 g ai/ha, scale 0 (no effect) to 100 (complete control), read-out: Plant response rating, Chickweed): 85%; pest or weed control at 31 g/ha ([1]; 31 g ai/ha, scale 0-100, read-out: Plant response rating, Chickweed): 95%; pest or weed control at 62 g/ha ([1]; 62 g ai/ha, scale 0-100, read-out: Plant response rating, Chickweed): 95%; pest or weed control at 125 g/ha ([1]; 125 g ai/ha, scale 0-100, read-out: Plant response rating, Chickweed): 100%; pest or weed control at 16 g/ha ([2]; 16 g ai/ha, scale 0 (no effect) to 100 (complete control), read-out: Plant response rating, Field Poppy): 100%; pest or weed control at 31 g/ha ([2]; 31 g ai/ha, scale 0-100, read-out: Plant response rating, Field Poppy): 100%; pest or weed control at 62 g/ha ([2]; 62 g ai/ha, scale 0-100, read-out: Plant response rating, Field Poppy): 100%; pest or weed control at 125 g/ha ([2]; 125 g ai/ha, scale 0-100, read-out: Plant response rating, Field Poppy): 100%; pest or weed control at 16 g/ha ([3]; 16 g ai/ha, scale 0 (no effect) to 100 (complete control), read-out: Plant response rating, Ryegrass, Italian): 20%; pest or weed control at 31 g/ha ([3]; 31 g ai/ha, scale 0 (no effect) to 100 (complete control), read-out: Plant response rating, Ryegrass, Italian): 40%; pest or weed control at 62 g/ha ([3]; 62 g ai/ha, scale 0-100, read-out: Plant response rating, Ryegrass, Italian): 60%; pest or weed control at 125 g/ha ([3]; 125 g ai/ha, scale 0-100, read-out: Plant response rating, Ryegrass, Italian): 85%; pest or weed control at 16 g/ha ([4]; 16 g ai/ha, scale 0 (no effect) to 100 (complete control), read-out: Plant response rating, Oat, Wild): 0%; pest or weed control at 31 g/ha ([4]; 31 g ai/ha, scale 0-100, read-out: Plant response rating, Oat, Wild): 30%; pest or weed control at 62 g/ha ([4]; 62 g ai/ha, scale 0-100, read-out: Plant response rating, Oat, Wild): 55%; pest or weed control at 125 g/ha ([4]; 125 g ai/ha, scale 0-100, read-out: Plant response rating, Oat, Wild): 75%; pest or weed control at 16 g/ha ([5]; 16 g ai/ha, scale 0 (no effect) to 100 (complete control), read-out: Plant response rating, Windgrass): 50%; pest or weed control at 31 g/ha ([5]; 31 g ai/ha, scale 0 (no effect) to 100 (complete control), read-out: Plant response rating, Windgrass): 75%; pest or weed control at 62 g/ha ([5]; 62 g ai/ha, scale 0-100, read-out: Plant response rating, Windgrass): 100%; pest or weed control at 125 g/ha ([5]; 125 g ai/ha, scale 0-100, read-out: Plant response rating, Windgrass): 100%; pest or weed control at 16 g/ha ([6]; 16 g ai/ha): 20%; pest or weed control at 31 g/ha ([6]; 31 g ai/ha): 40%; pest or weed control at 62 g/ha ([6]; 62 g ai/ha): 55%; pest or weed control at 125 g/ha ([6]; 125 g ai/ha): 65%; pest or weed control at 62 g/ha ([7]; 62 g ai/ha): 40%; pest or weed control at 16 g/ha ([7]; 16 g ai/ha): 15%; pest or weed control at 31 g/ha ([7]; 31 g ai/ha): 20%; pest or weed control at 125 g/ha ([7]; 125 g ai/ha): 65%; pest or weed control at 16 g/ha ([8]; 16 g ai/ha, scale 0-100, read-out: Plant response rating, Ryegrass, Italian): 10%; pest or weed control at 31 g/ha ([8]; 31 g ai/ha, scale 0 to 100 (0 no effect, 100 complete control), read-out: Plant response rating, Ryegrass, Italian): 20%; pest or weed control at 62 g/ha ([8]; 62 g ai/ha, scale 0 to 100 (0 no effect, 100 complete control), read-out: Plant response rating, Ryegrass, Italian): 25%; pest or weed control at 125 g/ha ([8]; 125 g ai/ha, scale 0 to 100 (0 no effect, 100 complete control), read-out: Plant response rating, Ryegrass, Italian): 40%; plant injury at 16 g/ha ([9]; 16 g ai/ha, scale 0-100, read-out: Plant response rating, Wheat, Spring): 5%; plant injury at 31 g/ha ([9]; 31 g ai/ha, scale 0 to 100 (0 no effect, 100 complete control), read-out: Plant response rating, Wheat, Spring): 10%; plant injury at 62 g/ha ([9]; 62 g ai/ha, scale 0 to 100 (0 no effect, 100 complete control), read-out: Plant response rating, Wheat, Spring): 25%; plant injury at 125 g/ha ([9]; 125 g ai/ha, scale 0 to 100 (0 no effect, 100 complete control), read-out: Plant response rating, Wheat, Spring): 35%; plant injury at 16 g/ha ([10]; 16 g ai/ha, scale 0-100, read-out: Plant response rating, Wheat, Winter): 5%; plant injury at 31 g/ha ([10]; 31 g ai/ha, scale 0 to 100 (0 no effect, 100 complete control), read-out: Plant response rating, Wheat, Winter): 15%; plant injury at 62 g/ha ([10]; 62 g ai/ha, scale 0 to 100 (0 no effect, 100 complete control), read-out: Plant response rating, Wheat, Winter): 30%; plant injury at 125 g/ha ([10]; 125 g ai/ha, scale 0 to 100 (0 no effect, 100 complete control), read-out: Plant response rating, Wheat, Winter): 40%; pest or weed control at 16 g/ha ([11]; 16 g ai/ha): 70%; pest or weed control at 31 g/ha ([11]; 31 g ai/ha): 95%; pest or weed control at 62 g/ha ([11]; 62 g ai/ha): 95%; pest or weed control at 125 g/ha ([11]; 125 g ai/ha): 100%; pest or weed control at 16 g/ha ([12]; 16 g ai/ha, scale 0-100, read-out: Plant response rating, Windgrass): 15%; pest or weed control at 31 g/ha ([12]; 31 g ai/ha, scale 0 to 100 (0 no effect, 100 complete control), read-out: Plant response rating, Windgrass): 25%; pest or weed control at 62 g/ha ([12]; 62 g ai/ha, scale 0 to 100 (0 no effect, 100 complete control), read-out: Plant response rating, Windgrass): 35%; pest or weed control at 125 g/ha ([12]; 125 g ai/ha, scale 0 to 100 (0 no effect, 100 complete control), read-out: Plant response rating, Windgrass): 55%
